# ChEMBL document CHEMBL5724914, “Linking interpersonal differences in gut microbiota composition and drug biotransformation activity” (2024)
# Key:
# [1] = (§1) The drug is tested on Z-030 corresponding to mouse gut metagenome with ENA study accession number: PRJEB37062 and ENA sample accession number: ERS12561829 for biotransformation under anaerobic condition. The drug concentrations were measured over 9 timepoints collected between 0 and 24 hours of incubation by liquid-chromatography-coupled mass spectrometry (LC–MS); details: 2 µM
# [2] = as §1, with “Z-029” for “Z-030”, “rat” for “mouse”, “ERS12561828” for “ERS12561829”; details: 2 µM
# [3] = as §1, with “Z-024” for “Z-030”, “pig” for “mouse”, “ERS12561823” for “ERS12561829”; details: 2 µM
# [4] = as §1, with “Z-012” for “Z-030”, “to” for “to mouse gut”, “ERS12561812” for “ERS12561829”; details: 2 µM
# [5] = as §1, with “Z-007” for “Z-030”, “rat” for “mouse”, “ERS12561807” for “ERS12561829”; details: 2 µM
# [6] = as §1, with “Z-005” for “Z-030”, “to” for “to mouse gut”, “ERS12561805” for “ERS12561829”; details: 2 µM
# [7] = as §1, with “Z-001” for “Z-030”, “ERS12561801” for “ERS12561829”; details: 2 µM
# [8] = as §1, with “WLS-090” for “Z-030”, “human” for “mouse”, “ERS12561753” for “ERS12561829”; details: 2 µM
# [9] = as §1, with “WLS-082” for “Z-030”, “human” for “mouse”, “ERS12561751” for “ERS12561829”; details: 2 µM
# [10] = as §1, with “WLS-077” for “Z-030”, “human” for “mouse”, “ERS12561750” for “ERS12561829”; details: 2 µM
# [11] = human gut metagenome, 24 h, 2 µM
# [12] = human gut metagenome, 24 h, 2 µM; remark: listed apart in the source
# [13] = human gut metagenome, 24 h, 2 µM; remark: listed apart in the source
# [14] = human gut metagenome, 24 h, 2 µM; remark: listed apart in the source
# [15] = human gut metagenome, 24 h, 2 µM; remark: listed apart in the source
# [16] = human gut metagenome, 24 h, 2 µM; remark: listed apart in the source
# [17] = human gut metagenome, 24 h, 2 µM; remark: listed apart in the source
# [18] = human gut metagenome, 24 h, 2 µM; remark: listed apart in the source
# [19] = human gut metagenome, 24 h, 2 µM; remark: listed apart in the source
# [20] = human gut metagenome, 24 h, 2 µM; remark: listed apart in the source
# Note: call rule not given here.
Compound,Bacterial Biotransformation [1],Bacterial Biotransformation [2],Bacterial Biotransformation [3],Bacterial Biotransformation [4],Bacterial Biotransformation [5],Bacterial Biotransformation [6],Bacterial Biotransformation [7],Bacterial Biotransformation [8],Bacterial Biotransformation [9],Bacterial Biotransformation [10],Bacterial Biotransformation [11],Bacterial Biotransformation [12],Bacterial Biotransformation [13],Bacterial Biotransformation [14],Bacterial Biotransformation [15],Bacterial Biotransformation [16],Bacterial Biotransformation [17],Bacterial Biotransformation [18],Bacterial Biotransformation [19],Bacterial Biotransformation [20]
CNS(=O)(=O)Cc1ccc2[nH]cc(CCN(C)C)c2c1.O=C(O)CCC(=O)O [SUMATRIPTAN SUCCINATE],Compound NOT metabolized,Compound NOT metabolized,Compound NOT metabolized,Compound NOT metabolized,Compound NOT metabolized,Compound NOT metabolized,Compound metabolized,Compound metabolized,Compound NOT metabolized,Compound NOT metabolized,Compound NOT metabolized,Compound metabolized,Compound NOT metabolized,Compound NOT metabolized,Compound NOT metabolized,Compound NOT metabolized,Compound NOT metabolized,Compound NOT metabolized,Compound metabolized,Compound metabolized
Cc1ccc(S(=O)(=O)NC(=O)NN2CC3CCCC3C2)cc1 (stereo not given) [GLICLAZIDE],Compound NOT metabolized,Compound NOT metabolized,Compound metabolized,Compound metabolized,Compound NOT metabolized,Compound metabolized,Compound metabolized,Compound metabolized,Compound metabolized,Compound metabolized,Compound metabolized,Compound metabolized,Compound metabolized,Compound metabolized,Compound metabolized,Compound metabolized,Compound metabolized,Compound NOT metabolized,Compound metabolized,Compound metabolized
C=CCN1CC[C@]23c4c5ccc(O)c4O[C@H]2C(=O)CC[C@@]3(O)[C@H]1C5 [NALOXONE],Compound NOT metabolized,Compound NOT metabolized,Compound NOT metabolized,Compound NOT metabolized,Compound NOT metabolized,Compound NOT metabolized,Compound metabolized,Compound NOT metabolized,Compound NOT metabolized,Compound NOT metabolized,Compound NOT metabolized,Compound NOT metabolized,Compound NOT metabolized,Compound NOT metabolized,Compound NOT metabolized,Compound NOT metabolized,Compound NOT metabolized,Compound NOT metabolized,Compound NOT metabolized,Compound NOT metabolized
CCN(CC)CCOCCOC(=O)C1(c2ccccc2)CCCC1.O=C(O)CC(O)(CC(=O)O)C(=O)O [CARBETAPENTANE CITRATE],Compound NOT metabolized,Compound NOT metabolized,Compound metabolized,Compound NOT metabolized,Compound NOT metabolized,Compound metabolized,Compound NOT metabolized,Compound metabolized,Compound metabolized,Compound metabolized,Compound metabolized,Compound metabolized,Compound NOT metabolized,Compound metabolized,Compound metabolized,Compound metabolized,Compound metabolized,Compound NOT metabolized,Compound metabolized,Compound metabolized
COc1ccc2c3c1O[C@H]1C[C@@H](O)C=C[C@@]31CCN(C)C2 [GALANTAMINE],Compound NOT metabolized,Compound NOT metabolized,Compound NOT metabolized,Compound NOT metabolized,Compound NOT metabolized,Compound NOT metabolized,Compound NOT metabolized,Compound metabolized,Compound NOT metabolized,Compound NOT metabolized,Compound NOT metabolized,Compound metabolized,Compound NOT metabolized,Compound NOT metabolized,Compound NOT metabolized,Compound metabolized,Compound NOT metabolized,Compound NOT metabolized,Compound metabolized,Compound metabolized
Br.CN(C)CCCC1(c2ccc(F)cc2)OCc2cc(C#N)ccc21 (stereo not given) [CITALOPRAM HYDROBROMIDE],Compound NOT metabolized,Compound NOT metabolized,Compound NOT metabolized,Compound NOT metabolized,Compound NOT metabolized,Compound NOT metabolized,Compound NOT metabolized,Compound metabolized,Compound NOT metabolized,Compound NOT metabolized,Compound metabolized,Compound metabolized,Compound NOT metabolized,Compound metabolized,Compound metabolized,Compound NOT metabolized,Compound NOT metabolized,Compound NOT metabolized,Compound metabolized,Compound metabolized
CN(C)CCC=C1c2ccccc2C=Cc2ccccc21 [CYCLOBENZAPRINE],Compound NOT metabolized,Compound NOT metabolized,Compound metabolized,Compound NOT metabolized,Compound NOT metabolized,Compound NOT metabolized,Compound metabolized,Compound metabolized,Compound metabolized,Compound NOT metabolized,Compound NOT metabolized,Compound metabolized,Compound metabolized,Compound metabolized,Compound NOT metabolized,Compound metabolized,Compound metabolized,Compound NOT metabolized,Compound metabolized,Compound metabolized
CCN(CC)CC#CCOC(=O)C(O)(c1ccccc1)C1CCCCC1.Cl (stereo not given) [OXYBUTYNIN CHLORIDE],Compound NOT metabolized,Compound NOT metabolized,Compound metabolized,Compound metabolized,Compound NOT metabolized,Compound metabolized,Compound metabolized,Compound metabolized,Compound metabolized,Compound metabolized,Compound NOT metabolized,Compound metabolized,Compound metabolized,Compound metabolized,Compound metabolized,Compound metabolized,Compound metabolized,Compound NOT metabolized,Compound metabolized,Compound metabolized
